The values that follow come from ChEMBL document CHEMBL5120828, “Identification and optimisation of a pyrimidopyridone series of IRAK4 inhibitors” (Bioorg Med Chem, 2022).

In brackets after ≈: the same amount, converted by molar mass.

Data set [1] can be described thus: Efflux ratio of permeability in human Caco-2 cells. In kind it is ADME, cell-based. (Caco-2 cells form a polarised layer with tight junctions and transporters.)
The target in data set [2] is T1, Interleukin-1 receptor-associated kinase 4 (Homo sapiens, UniProt Q9NWZ3).
T1 sequence (Q9NWZ3 whole entry): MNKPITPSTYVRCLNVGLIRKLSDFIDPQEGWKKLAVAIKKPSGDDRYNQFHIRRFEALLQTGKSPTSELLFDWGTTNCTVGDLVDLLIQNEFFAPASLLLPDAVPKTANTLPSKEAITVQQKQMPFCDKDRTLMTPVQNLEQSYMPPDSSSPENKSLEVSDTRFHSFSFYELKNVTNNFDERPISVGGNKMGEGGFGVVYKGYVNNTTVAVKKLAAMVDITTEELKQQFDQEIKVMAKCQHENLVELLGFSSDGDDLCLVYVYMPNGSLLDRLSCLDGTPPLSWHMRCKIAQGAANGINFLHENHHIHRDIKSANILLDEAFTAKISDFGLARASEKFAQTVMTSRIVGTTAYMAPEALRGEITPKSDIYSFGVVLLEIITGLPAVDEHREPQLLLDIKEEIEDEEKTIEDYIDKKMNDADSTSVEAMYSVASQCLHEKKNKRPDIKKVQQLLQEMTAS
The data set can be described thus: Inhibition of IRAK4 in IL1-stimulated human KARPAS-299 cells assessed as fluorescence intensity. Type of data set: cell-based.

The target in data set [3] is Voltage-gated inwardly rectifying potassium channel KCNH2 (Homo sapiens, UniProt Q12809). Put plainly: Inhibition of human ERG channel. In kind it is toxicity.
Voltage-gated inwardly rectifying potassium channel KCNH2, sequence (Q12809 whole entry): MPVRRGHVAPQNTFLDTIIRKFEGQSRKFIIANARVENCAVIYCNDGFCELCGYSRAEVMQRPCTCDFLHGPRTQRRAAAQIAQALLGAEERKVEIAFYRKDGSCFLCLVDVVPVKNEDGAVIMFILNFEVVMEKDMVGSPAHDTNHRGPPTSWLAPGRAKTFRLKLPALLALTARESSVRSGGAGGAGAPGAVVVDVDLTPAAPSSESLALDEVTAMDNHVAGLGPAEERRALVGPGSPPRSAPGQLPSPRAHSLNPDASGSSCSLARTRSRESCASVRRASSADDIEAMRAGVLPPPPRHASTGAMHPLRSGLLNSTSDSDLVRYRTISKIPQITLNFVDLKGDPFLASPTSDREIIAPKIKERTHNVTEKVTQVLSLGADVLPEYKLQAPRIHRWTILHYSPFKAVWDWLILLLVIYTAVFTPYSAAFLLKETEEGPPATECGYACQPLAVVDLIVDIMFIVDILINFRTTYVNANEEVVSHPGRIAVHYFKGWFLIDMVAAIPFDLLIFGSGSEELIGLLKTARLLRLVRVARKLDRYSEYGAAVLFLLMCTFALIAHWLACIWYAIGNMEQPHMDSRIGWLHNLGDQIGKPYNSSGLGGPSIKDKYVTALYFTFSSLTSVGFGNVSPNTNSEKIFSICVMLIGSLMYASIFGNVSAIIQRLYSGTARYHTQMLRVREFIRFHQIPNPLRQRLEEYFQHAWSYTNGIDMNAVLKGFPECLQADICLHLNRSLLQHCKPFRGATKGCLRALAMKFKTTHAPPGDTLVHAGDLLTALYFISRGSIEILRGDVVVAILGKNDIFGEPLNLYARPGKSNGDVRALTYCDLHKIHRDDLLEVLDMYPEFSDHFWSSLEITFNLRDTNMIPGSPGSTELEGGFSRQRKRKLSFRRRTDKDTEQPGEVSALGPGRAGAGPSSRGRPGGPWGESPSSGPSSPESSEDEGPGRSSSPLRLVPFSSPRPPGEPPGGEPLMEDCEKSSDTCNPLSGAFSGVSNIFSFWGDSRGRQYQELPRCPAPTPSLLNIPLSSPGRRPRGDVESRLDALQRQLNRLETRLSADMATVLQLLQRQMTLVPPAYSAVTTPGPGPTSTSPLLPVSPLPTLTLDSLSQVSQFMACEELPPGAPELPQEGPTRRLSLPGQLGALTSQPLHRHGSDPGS
Data set [4] is described as follows: Metabolic stability in human liver microsomes assessed as intrinsic clearance. In kind it is ADME.
Data set [5] deals with T1, Interleukin-1 receptor-associated kinase 4. The data set can be described thus: Inhibition of human recombinant IRAK4 assessed as unphosphorylated KKARFSRFAGSSPSQSSMVAR peptide substrate measured after 2 hrs by LC-MS/MS analysis.
Data set [6] is described as follows: Octanol/water partition coefficient, logP of compound at pH 7.4 by shake-flask method. In kind it is physicochemical.
The nature of data set [7]: Intrinsic permeability across apical to basolateral side in human Caco-2 cells. In kind it is ADME, cell-based.
Data set [8] can be described thus: Aqueous solubility of compound. Type of data set: physicochemical. Particulars: buffer.
Data set [9] in a line: Fraction unbound in human plasma. Type of data set: ADME, cell-free.

Broadly, the efflux ratio is a quotient of directional permeabilities that is used to spot active efflux. For orientation: IC50 means the concentration at which inhibition is half-maximal. A word on the logD: it is the decadic logarithm of the distribution of all forms, ionised or not, between an organic phase and buffer at a given pH. The term Papp A→B denotes the apparent permeability from the apical to the basolateral side of a cell layer. Broadly, the solubility is how much of the substance goes into solution per volume. A higher solubility goes with a readily soluble substance. Usually fraction unbound stands for free concentration divided by total concentration. Low readings indicate little free substance, high ones much free substance. With `C[C@H](F)Cn1ccc2nc(Nc3cnn(C4CC5(C4)CN(C)C5)c3)nc(NC3(C)CC3)c2c1=O`, the efflux ratio in [1] was determined as 6.1. The IC50 stood at 120 nM in data set [2], 4200 nM in [3] and 2 nM in data set [5]. In addition, the CLint in data set [4] was determined as 10 µL/min/mg. In [6], this compound displayed a logD of 2.1. The Papp A→B in [7] was 17 ×10⁻⁶ cm/s. In addition, the solubility in data set [8] is 890 µM (≈ 415 µg/mL). In addition, in data set [9], the fraction unbound worked out at 0.17.
